Test results from patent US20240398784A1, “C-LINKED ISOQUINOLINE AMIDES AS LRRK2 INHIBITORS, PHARMACEUTICAL COMPOSITIONS, AND USES THEREOF” (Merck Sharp & Dohme LLC, priority 2021, published 2024).

Biological target: LRRK2 G2019S (Homo sapiens, UniProt Q5S007, G2019S)
Assay: LRRK2 G2019S Km ATP LanthaScreen assay
Format: biochemical
Conditions: read-out: LRRK2 pIC50 (converted)

Sequence of LRRK2 G2019S (Q5S007 whole entry G2019S): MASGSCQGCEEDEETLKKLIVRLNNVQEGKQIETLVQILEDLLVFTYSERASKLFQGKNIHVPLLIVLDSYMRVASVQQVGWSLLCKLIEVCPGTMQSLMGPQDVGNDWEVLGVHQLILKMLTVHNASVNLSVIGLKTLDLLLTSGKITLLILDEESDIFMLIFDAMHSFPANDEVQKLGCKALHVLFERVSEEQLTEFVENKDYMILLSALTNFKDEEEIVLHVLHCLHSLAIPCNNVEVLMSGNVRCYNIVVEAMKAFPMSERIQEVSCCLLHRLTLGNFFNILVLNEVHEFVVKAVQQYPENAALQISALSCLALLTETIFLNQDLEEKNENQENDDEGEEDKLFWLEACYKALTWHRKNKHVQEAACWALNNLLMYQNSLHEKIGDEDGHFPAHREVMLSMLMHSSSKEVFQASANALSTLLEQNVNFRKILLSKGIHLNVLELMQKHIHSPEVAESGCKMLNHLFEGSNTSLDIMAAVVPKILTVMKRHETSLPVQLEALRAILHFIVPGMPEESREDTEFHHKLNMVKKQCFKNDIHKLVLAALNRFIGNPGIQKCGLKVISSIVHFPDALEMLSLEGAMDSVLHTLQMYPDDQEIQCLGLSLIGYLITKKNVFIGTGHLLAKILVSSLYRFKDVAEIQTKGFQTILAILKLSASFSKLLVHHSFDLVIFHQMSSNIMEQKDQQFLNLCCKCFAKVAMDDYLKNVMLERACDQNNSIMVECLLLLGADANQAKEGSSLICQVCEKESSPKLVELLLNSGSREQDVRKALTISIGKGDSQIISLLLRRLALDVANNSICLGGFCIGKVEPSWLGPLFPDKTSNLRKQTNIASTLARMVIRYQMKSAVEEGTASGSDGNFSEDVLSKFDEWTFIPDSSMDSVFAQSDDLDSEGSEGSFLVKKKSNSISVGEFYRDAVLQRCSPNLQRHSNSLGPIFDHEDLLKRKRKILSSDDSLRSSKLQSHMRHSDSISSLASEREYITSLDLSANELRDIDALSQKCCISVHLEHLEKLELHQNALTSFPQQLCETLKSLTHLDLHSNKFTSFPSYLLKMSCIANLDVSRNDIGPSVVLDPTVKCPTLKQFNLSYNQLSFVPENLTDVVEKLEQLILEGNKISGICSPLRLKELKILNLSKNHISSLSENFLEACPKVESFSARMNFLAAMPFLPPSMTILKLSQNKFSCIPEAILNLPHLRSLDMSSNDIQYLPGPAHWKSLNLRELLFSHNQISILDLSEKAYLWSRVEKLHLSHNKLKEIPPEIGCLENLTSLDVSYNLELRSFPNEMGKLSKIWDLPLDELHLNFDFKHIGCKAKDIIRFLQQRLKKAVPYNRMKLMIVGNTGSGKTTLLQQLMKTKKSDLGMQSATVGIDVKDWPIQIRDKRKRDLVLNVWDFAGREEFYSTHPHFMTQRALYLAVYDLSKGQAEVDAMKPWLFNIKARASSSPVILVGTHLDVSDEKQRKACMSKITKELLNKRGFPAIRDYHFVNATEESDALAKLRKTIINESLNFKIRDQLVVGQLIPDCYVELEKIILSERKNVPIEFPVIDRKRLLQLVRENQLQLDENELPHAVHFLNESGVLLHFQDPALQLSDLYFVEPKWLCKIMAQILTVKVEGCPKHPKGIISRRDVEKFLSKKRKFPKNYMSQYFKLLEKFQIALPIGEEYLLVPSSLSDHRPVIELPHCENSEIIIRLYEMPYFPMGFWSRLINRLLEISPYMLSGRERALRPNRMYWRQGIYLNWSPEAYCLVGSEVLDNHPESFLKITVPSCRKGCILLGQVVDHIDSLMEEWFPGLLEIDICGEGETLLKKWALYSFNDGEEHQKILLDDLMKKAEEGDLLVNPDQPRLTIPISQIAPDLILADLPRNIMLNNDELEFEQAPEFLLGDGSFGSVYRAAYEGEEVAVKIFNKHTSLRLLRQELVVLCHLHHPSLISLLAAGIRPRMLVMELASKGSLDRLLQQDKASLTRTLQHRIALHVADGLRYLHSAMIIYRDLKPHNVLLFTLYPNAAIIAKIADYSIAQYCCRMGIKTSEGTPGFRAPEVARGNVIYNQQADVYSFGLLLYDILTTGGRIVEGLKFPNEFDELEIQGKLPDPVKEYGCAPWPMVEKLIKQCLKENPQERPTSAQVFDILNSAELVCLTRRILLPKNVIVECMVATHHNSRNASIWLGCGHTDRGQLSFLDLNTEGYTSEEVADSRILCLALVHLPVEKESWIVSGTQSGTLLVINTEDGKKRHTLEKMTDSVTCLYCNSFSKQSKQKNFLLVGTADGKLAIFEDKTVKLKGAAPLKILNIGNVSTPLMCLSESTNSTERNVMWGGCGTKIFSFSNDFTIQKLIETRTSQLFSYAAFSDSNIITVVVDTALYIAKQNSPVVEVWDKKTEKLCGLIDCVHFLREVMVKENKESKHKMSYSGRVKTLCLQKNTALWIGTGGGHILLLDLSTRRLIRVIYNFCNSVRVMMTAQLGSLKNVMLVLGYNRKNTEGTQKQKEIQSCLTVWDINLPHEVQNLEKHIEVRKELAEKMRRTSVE

SMILES | IC50 [nM]
CC1(N2CCC(c3cc4cc(NC(=O)C5CC56CCOCC6)ncc4cc3Cl)CC2)CCOCC1F (single isomer, unassigned) [Ex-12.2, N-(7-chloro-6-(1-((3R,4R or 3S,4S)-3-fluoro-4-methyltetrahydro-2H-pyran-4-yl)piperidin-4-yl)isoquinolin-3-yl)-6-oxaspiro[2.5]octane-1-carboxamide] | 6.46
O=C(Nc1cc2cc(C3CCN(C4COCC4O)CC3)c(Cl)cc2cn1)C1CC1 (single isomer, unassigned) [Ex-12.3, N-(7-chloro-6-(1-(4-hydroxytetrahydrofuran-3-yl)piperidin-4-yl)isoquinolin-3-yl)cyclopropanecarboxamide] | 1.17
O=C(Nc1cc2cc(C3CCN(C4COCC4O)CC3)c(Cl)cc2cn1)C1CC1 (single isomer, unassigned) [Ex-12.4, N-(7-chloro-6-(1-(4-hydroxytetrahydrofuran-3-yl)piperidin-4-yl)isoquinolin-3-yl)cyclopropanecarboxamide] | 66.1
O=C(Nc1cc2cc(C3CCN(C4COCC4O)CC3)c(Cl)cc2cn1)C1CC1 (single isomer, unassigned) [Ex-12.5, N-(7-chloro-6-(1-(4-hydroxytetrahydrofuran-3-yl)piperidin-4-yl)isoquinolin-3-yl)cyclopropanecarboxamide] | 2.88
Cn1cc(C(=O)Nc2cc3cc(C4CCN([C@]5(C)COC[C@@H]5O)CC4)c(Cl)cc3cn2)cn1 (single isomer, unassigned) [Ex-12.6, N-(7-chloro-6-(1-(4-hydroxy-3-methyltetrahydrofuran-3-yl)piperidin-4-yl)isoquinolin-3-yl)-1-methyl-1H-pyrazole-4-carboxamide] | 0.776
Cn1cc(C(=O)Nc2cc3cc(C4CCN([C@]5(C)COC[C@@H]5O)CC4)c(Cl)cc3cn2)cn1 (single isomer, unassigned) [Ex-12.7, N-(7-chloro-6-(1-(4-hydroxy-3-methyltetrahydrofuran-3-yl)piperidin-4-yl)isoquinolin-3-yl)-1-methyl-1H-pyrazole-4-carboxamide] | 21.9
Cn1cc(C(=O)Nc2cc3cc(C4CCN([C@]5(C)COC[C@@H]5O)CC4)c(Cl)cc3cn2)cn1 (single isomer, unassigned) [Ex-12.8, N-(7-chloro-6-(1-(4-hydroxy-3-methyltetrahydrofuran-3-yl)piperidin-4-yl)isoquinolin-3-yl)-1-methyl-1H-pyrazole-4-carboxamide] | 316
Cn1cc(C(=O)Nc2cc3cc(C4CCN([C@]5(C)COC[C@@H]5O)CC4)c(Cl)cc3cn2)cn1 (single isomer, unassigned) [Ex-12.9, N-(7-chloro-6-(1-(4-hydroxy-3-methyltetrahydrofuran-3-yl)piperidin-4-yl)isoquinolin-3-yl)-1-methyl-1H-pyrazole-4-carboxamide] | 141
Cc1cc2cnc(NC(=O)C3CC3c3ccccn3)cc2cc1C1CCN(C2(C)COCC2F)CC1 (single isomer, unassigned) [Ex-13.1, (1R,2R or 1S,2S)-N-(6-(1-((3R,4R or 3S,4S)-4-fluoro-3-methyltetrahydrofuran-3-yl)piperidin-4-yl)-7-methylisoquinolin-3-yl)-2-(pyridin-2-yl)cyclopropane-1-carboxamide] | 2.51
Cc1cc2cnc(NC(=O)C3CC3c3ccccn3)cc2cc1C1CCN(C2(C)COCC2F)CC1 (single isomer, unassigned) [Ex-13.2, (1R,2R or 1S,2S)-N-(6-(1-((3R,4R or 3S,4S)-4-fluoro-3-methyltetrahydrofuran-3-yl)piperidin-4-yl)-7-methylisoquinolin-3-yl)-2-(pyridin-2-yl)cyclopropane-1-carboxamide] | 38.9
Cc1cc2cnc(NC(=O)C3CC3c3ccccn3)cc2cc1C1CCN(C2(C)COCC2F)CC1 (single isomer, unassigned) [Ex-13.3, (1R,2R or 1S,2S)-N-(6-(1-((3R,4R or 3S,4S)-4-fluoro-3-methyltetrahydrofuran-3-yl)piperidin-4-yl)-7-methylisoquinolin-3-yl)-2-(pyridin-2-yl)cyclopropane-1-carboxamide] | 0.501
Cc1cc2cnc(NC(=O)C3CC3c3ccccn3)cc2cc1C1CCN(C2(C)COCC2F)CC1 (single isomer, unassigned) [Ex-13.4, (1R,2R or 1S,2S)-N-(6-(1-((3R,4R or 3S,4S)-4-fluoro-3-methyltetrahydrofuran-3-yl)piperidin-4-yl)-7-methylisoquinolin-3-yl)-2-(pyridin-2-yl)cyclopropane-1-carboxamide] | 21.9
O=C(Nc1cc2cc(C3CCN(C4COC4)CC3F)c(Cl)cc2cn1)C1CC1 (single isomer, unassigned) [Ex-14.1, N-(7-chloro-6-((3R,4R,3S,4R,3R,4S or 3S,4S)-3-fluoro-1-(oxetan-3-yl)piperidin-4-yl)isoquinolin-3-yl)cyclopropanecarboxamide] | 5.89
O=C(Nc1cc2cc(C3CCN(C4COC4)CC3F)c(Cl)cc2cn1)C1CC1 (single isomer, unassigned) [Ex-14.2, N-(7-chloro-6-((3R,4R,3S,4R,3R,4S or 3S,4S)-3-fluoro-1-(oxetan-3-yl)piperidin-4-yl)isoquinolin-3-yl)cyclopropanecarboxamide] | 4.07
CC1(N2CCC(c3cc4cc(NC(=O)C5CC56CCOCC6)ncc4cc3Cl)C(F)C2)COCC1O (single isomer, unassigned) [Ex-14.4, N-(7-chloro-6-(3-fluoro-1-(4-hydroxy-3-methyltetrahydrofuran-3-yl)piperidin-4-yl)isoquinolin-3-yl)-6-oxaspiro[2.5]octane-1-carboxamide] | 0.186
CC1(N2CCC(c3cc4cc(NC(=O)C5CC56CCOCC6)ncc4cc3Cl)C(F)C2)COCC1O (single isomer, unassigned) [Ex-14.5, N-(7-chloro-6-(3-fluoro-1-(4-hydroxy-3-methyltetrahydrofuran-3-yl)piperidin-4-yl)isoquinolin-3-yl)-6-oxaspiro[2.5]octane-1-carboxamide] | 1.58
CC1(N2CCC(c3cc4cc(NC(=O)C5CC56CCOCC6)ncc4cc3Cl)C(F)C2)COCC1O (single isomer, unassigned) [Ex-14.6, N-(7-chloro-6-(3-fluoro-1-(4-hydroxy-3-methyltetrahydrofuran-3-yl)piperidin-4-yl)isoquinolin-3-yl)-6-oxaspiro[2.5]octane-1-carboxamide] | 2.57
Cc1cc2cnc(NC(=O)C3CC4(CC4)C3)cc2cc1C1CCN(C2(C)COCC2O)CC1 (single isomer, unassigned) [Ex-15.2, N-(6-(1-(4-hydroxy-3-methyltetrahydrofuran-3-yl)piperidin-4-yl)-7-methylisoquinolin-3-yl)spiro[2.3]hexane-5-carboxamide] | 0.302
Cc1cc2cnc(NC(=O)C3CC34CCOCC4)cc2cc1C1CCN(C2(C)COCC2C)CC1 (single isomer, unassigned) [Ex-15.3, N-(6-(1-(3,4-dimethyltetrahydrofuran-3-yl)piperidin-4-yl)-7-methylisoquinolin-3-yl)-6-oxaspiro[2.5]octane-1-carboxamide] | 47.9
Cc1cc2cnc(NC(=O)C3CC34CCOCC4)cc2cc1C1CCN(C2(C)COCC2C)CC1 (single isomer, unassigned) [Ex-15.4, N-(6-(1-(3,4-dimethyltetrahydrofuran-3-yl)piperidin-4-yl)-7-methylisoquinolin-3-yl)-6-oxaspiro[2.5]octane-1-carboxamide] | 0.0813
Cc1cc2cnc(NC(=O)C3CC3C(C)(C)F)cc2cc1C1CCN(C2(C)COCC2O)CC1 (single isomer, unassigned) [Ex-15.5, 2-(2-fluoropropan-2-yl)-N-(6-(1-(4-hydroxy-3-methyltetrahydrofuran-3-yl)piperidin-4-yl)-7-methylisoquinolin-3-yl)cyclopropane-1-carboxamide] | 21.4
Cc1cc2cnc(NC(=O)C3CC3C(C)(C)F)cc2cc1C1CCN(C2(C)COCC2O)CC1 (single isomer, unassigned) [Ex-15.6, 2-(2-fluoropropan-2-yl)-N-(6-(1-(4-hydroxy-3-methyltetrahydrofuran-3-yl)piperidin-4-yl)-7-methylisoquinolin-3-yl)cyclopropane-1-carboxamide] | 0.501
Cc1cc2cnc(NC(=O)C3CC34CCOC4)cc2cc1C1CCN(C2(C)COCC2F)CC1 (single isomer, unassigned) [Ex-15.7, N-(6-(1-(4-fluoro-3-methyltetrahydrofuran-3-yl)piperidin-4-yl)-7-methylisoquinolin-3-yl)-5-oxaspiro[2.4]heptane-1-carboxamide] | 1.23
Cc1cc2cnc(NC(=O)C3CC34CCOC4)cc2cc1C1CCN(C2(C)COCC2F)CC1 (single isomer, unassigned) [Ex-15.8, N-(6-(1-(4-fluoro-3-methyltetrahydrofuran-3-yl)piperidin-4-yl)-7-methylisoquinolin-3-yl)-5-oxaspiro[2.4]heptane-1-carboxamide] | 219
Cc1cc2cnc(NC(=O)C3CC34CCOC4)cc2cc1C1CCN(C2(C)COCC2F)CC1 (single isomer, unassigned) [Ex-15.9, N-(6-(1-(4-fluoro-3-methyltetrahydrofuran-3-yl)piperidin-4-yl)-7-methylisoquinolin-3-yl)-5-oxaspiro[2.4]heptane-1-carboxamide] | 2.4
Cc1cc2cnc(NC(=O)C3CC34CCOC4)cc2cc1C1CCN(C2(C)COCC2F)CC1 (single isomer, unassigned) [Ex-15.10, N-(6-(1-(4-fluoro-3-methyltetrahydrofuran-3-yl)piperidin-4-yl)-7-methylisoquinolin-3-yl)-5-oxaspiro[2.4]heptane-1-carboxamide] | 2
Cc1cc2cnc(NC(=O)C3CC34CCOC4)cc2cc1C1CCN(C2(C)COCC2F)CC1 (single isomer, unassigned) [Ex-15.11, N-(6-(1-(4-fluoro-3-methyltetrahydrofuran-3-yl)piperidin-4-yl)-7-methylisoquinolin-3-yl)-5-oxaspiro[2.4]heptane-1-carboxamide] | 70.8
Cc1cc2cnc(NC(=O)C3CC34CCOC4)cc2cc1C1CCN(C2(C)COCC2F)CC1 (single isomer, unassigned) [Ex-15.12, N-(6-(1-(4-fluoro-3-methyltetrahydrofuran-3-yl)piperidin-4-yl)-7-methylisoquinolin-3-yl)-5-oxaspiro[2.4]heptane-1-carboxamide] | 85.1
